Measured values: publication PMC4455115, “A new arylbenzofuran derivative functions as an anti-tumour agent by inducing DNA damage and inhibiting PARP activity” (Scientific Reports, 2015)

Molecular target: T1, PARP-1 (Homo sapiens, UniProt P09874)
T1 construct: gene PARP1
Test: HT Universal Colorimetric PARP Assay Kit (Trevigen), in vitro PARP-1 activity
Type: biochemical

T1 sequence (P09874 2-1014): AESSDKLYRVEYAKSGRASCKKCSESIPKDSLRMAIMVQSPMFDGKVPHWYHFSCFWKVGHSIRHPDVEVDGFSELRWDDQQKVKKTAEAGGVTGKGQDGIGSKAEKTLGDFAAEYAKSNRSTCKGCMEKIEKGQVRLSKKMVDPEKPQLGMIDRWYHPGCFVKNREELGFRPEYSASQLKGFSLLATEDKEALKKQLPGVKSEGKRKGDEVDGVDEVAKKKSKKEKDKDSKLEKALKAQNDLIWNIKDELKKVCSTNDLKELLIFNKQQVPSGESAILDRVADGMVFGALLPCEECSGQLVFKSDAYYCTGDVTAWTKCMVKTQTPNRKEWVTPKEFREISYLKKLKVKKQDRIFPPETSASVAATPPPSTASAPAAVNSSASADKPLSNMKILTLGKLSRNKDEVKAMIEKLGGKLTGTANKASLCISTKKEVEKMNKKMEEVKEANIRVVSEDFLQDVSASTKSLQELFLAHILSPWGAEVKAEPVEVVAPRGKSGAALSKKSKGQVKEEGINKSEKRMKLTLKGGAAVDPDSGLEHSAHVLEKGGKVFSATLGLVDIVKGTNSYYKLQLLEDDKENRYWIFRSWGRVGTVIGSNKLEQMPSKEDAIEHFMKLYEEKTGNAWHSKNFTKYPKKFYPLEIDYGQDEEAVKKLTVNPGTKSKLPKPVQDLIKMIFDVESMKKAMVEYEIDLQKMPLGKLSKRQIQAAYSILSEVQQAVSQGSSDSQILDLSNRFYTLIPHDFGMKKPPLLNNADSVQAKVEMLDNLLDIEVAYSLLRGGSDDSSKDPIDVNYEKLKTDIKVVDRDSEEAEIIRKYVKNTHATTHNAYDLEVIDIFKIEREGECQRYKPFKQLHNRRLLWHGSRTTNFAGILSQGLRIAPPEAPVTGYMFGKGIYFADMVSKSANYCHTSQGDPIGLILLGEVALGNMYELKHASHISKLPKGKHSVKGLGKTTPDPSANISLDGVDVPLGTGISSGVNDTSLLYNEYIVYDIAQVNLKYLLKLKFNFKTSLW

With COc1ccc(-c2cc3cc(OC)cc(O)c3o2)cc1 [HDAB] the IC50 was 154 µM.
